Key:
K562 cells = experiment: Flow cytometric cell cycle analysis, K562; type: cell-based, Human; settings: 24 h
Protocol: FLT3 inhibition causes G1-cell cycle arrest in FLT3-dependent cell lines such as MV4-11; we, therefore, performed flow cytometric analysis to evaluate cell cycle changes in MV4-11 and K562 cell lines treated with 200 nM compounds for 24 h. […] Specifically, 18 compounds arrested >85% of cells in the G1 phase, which is >30% cells in the G1 phase of the cell cycle than in control cells (Figure 4A).
Finally, we performed flow cytometric analysis with different concentrations of 15a in MV4-11 and MOLM13 (another FLT-ITD positive cell line) and K562 cell lines treated for 24 h (Figure 5).
Asynchronously growing cells were seeded into a 96-well plate and, after a preincubation period, treated with tested compounds for 24 h. The treated cells were stained directly (or after trypsinization for the adherent cells) with the 5× staining solution (17 mM trisodium citrate dihydrate, 0.5% IGEPAL CA-630, 7.5 mM spermine tetrahydrochloride, and 2.5 mM Tris; pH 7.6 containing […] propidium iodide). After the staining, DNA content was analyzed using flow cytometry using a 488 nm laser (BD FACS Verse with software BD FACSuite^TM, version 1.0.6). Cell cycle distribution was analyzed using ModFit LT (Verity Software House, version 5.0). Palbociclib, trilaciclib, and quizartinib were purchased from MedChemExpress, Monmouth Junction, NJ, USA.

[1] = system: FLT3 signaling (FLT3 Y589/591, STAT5, ERK1/2) in MV4-11 cells; experiment: Western blot of FLT3 and downstream signaling in MV4-11; type: cell-based, Human; settings: MV4-11, 1 h treatment
Protocol: Next, we investigated the compounds for their ability to inhibit FLT3 and its downstream signaling in the MV4-11 cell line.
Cell lysates were prepared, and then proteins were separated on SDS-polyacrylamide gels and electroblotted onto nitrocellulose membranes.

MER = molecular target: T1, MER (Homo sapiens, UniProt Q12866); experiment: Kinase selectivity panel at 1 µM (Eurofins), MER; type: biochemical; settings: read-out: residual enzyme activity MER
T1 construct: purchased Eurofins Discovery (France)
T1 sequence (Q12866 21-999): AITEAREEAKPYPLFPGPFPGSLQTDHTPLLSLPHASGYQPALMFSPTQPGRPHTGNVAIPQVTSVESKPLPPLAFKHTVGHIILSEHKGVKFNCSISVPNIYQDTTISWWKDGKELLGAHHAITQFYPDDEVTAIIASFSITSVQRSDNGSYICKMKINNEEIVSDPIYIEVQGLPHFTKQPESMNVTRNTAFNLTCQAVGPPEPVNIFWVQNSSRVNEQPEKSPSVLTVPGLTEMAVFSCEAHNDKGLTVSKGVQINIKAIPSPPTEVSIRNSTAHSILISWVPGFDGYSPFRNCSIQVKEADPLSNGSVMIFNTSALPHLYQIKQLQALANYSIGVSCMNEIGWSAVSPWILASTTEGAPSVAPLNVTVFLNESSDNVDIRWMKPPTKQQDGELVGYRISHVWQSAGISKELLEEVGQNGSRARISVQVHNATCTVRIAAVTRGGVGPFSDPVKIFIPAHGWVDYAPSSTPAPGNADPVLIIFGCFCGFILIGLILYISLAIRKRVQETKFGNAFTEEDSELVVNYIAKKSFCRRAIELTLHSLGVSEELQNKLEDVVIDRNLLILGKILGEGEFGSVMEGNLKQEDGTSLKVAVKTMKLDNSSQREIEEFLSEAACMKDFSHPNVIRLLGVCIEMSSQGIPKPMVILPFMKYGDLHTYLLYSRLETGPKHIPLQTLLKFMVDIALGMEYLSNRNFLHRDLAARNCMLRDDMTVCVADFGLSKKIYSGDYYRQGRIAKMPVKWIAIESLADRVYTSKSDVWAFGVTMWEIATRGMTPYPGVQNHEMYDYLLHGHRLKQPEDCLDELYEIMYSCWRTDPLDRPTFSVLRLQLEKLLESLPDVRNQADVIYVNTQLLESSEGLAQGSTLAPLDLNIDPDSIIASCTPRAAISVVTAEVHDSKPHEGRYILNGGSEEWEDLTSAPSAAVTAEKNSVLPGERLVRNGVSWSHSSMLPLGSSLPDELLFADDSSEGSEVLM
Protocol: (§1) Three representative compounds (14d, 14e, and 15a) were profiled in a 1 µM concentration against 30 kinases that were selected as known off-targets of approved CDK4/6 inhibitors. […] Additional sensitive kinases include STK16, EphA1, MEKK2, SRC, and MER (≤10% of residual enzyme activities), which are not targets of the structurally similar CDK4/6 inhibitor, trilaciclib. We also screened compound 15a, an analogue of 14d, bearing isopropyl at position 7 of the purine instead of the methyl group. This change rapidly diminished the potency against CDK4 (dropped to 90% of residual enzyme activity), but the preference for FLT3 remained (1st rank) (Figure 2).
(§2) CDK/cyclin complexes and FLT3 kinases were assayed as previously described. Protein kinase selectivity was evaluated at a single concentration (1 µM) by screening against 30 enzymes at Eurofins Discovery (France).

MEKK2 = molecular target: T2, MEKK2 (Homo sapiens, UniProt Q9Y2U5); experiment: Kinase selectivity panel at 1 µM (Eurofins), MEKK2; type: biochemical; settings: read-out: residual enzyme activity MEKK2
T2 construct: purchased Eurofins Discovery (France)
T2 sequence (Q9Y2U5 1-619): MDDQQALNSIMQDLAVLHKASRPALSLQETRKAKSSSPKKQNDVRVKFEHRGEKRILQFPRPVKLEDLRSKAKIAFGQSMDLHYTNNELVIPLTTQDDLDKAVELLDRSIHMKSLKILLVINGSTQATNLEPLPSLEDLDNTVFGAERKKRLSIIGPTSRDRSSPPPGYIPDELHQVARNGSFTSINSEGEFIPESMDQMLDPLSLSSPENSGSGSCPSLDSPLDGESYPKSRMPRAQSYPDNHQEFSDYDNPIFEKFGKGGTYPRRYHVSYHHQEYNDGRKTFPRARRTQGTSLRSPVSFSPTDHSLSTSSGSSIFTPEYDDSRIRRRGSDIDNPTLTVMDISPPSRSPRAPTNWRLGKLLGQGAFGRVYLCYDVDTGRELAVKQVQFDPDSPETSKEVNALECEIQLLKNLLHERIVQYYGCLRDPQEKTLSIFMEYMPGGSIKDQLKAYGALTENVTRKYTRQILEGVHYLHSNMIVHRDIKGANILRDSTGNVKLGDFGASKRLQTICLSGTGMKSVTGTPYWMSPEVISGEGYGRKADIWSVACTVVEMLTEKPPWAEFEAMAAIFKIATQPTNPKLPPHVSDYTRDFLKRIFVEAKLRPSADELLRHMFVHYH
Protocol: as §1, §2

remaining activity at 1 µM (MER) [%] | remaining activity at 1 µM (MEKK2) [%] | SMILES | cell cycle changes in K562 (K562 cells; different concentrations) | concentration at which dephosphorylation of FLT3 was observed [1] [nM] | concentration giving nearly complete suppression of ERK1/2 [1] [nM] | effect on cell cycle (G1 arrest) in K562 (K562 cells; 200 nM) | autophosphorylation of FLT3 kinase at Y589/591 [1] | phosphorylation of downstream proteins STAT5 and ERK1/2 [1]
 |  | CC(C)n1c(=O)n(C2CCCC2)c2nc(Nc3ccc(N4CCNCC4)cc3)ncc21 [15a, 9-cyclopentyl-7-isopropyl-2-((4-(piperazin-1-yl)phenyl)amino)-7,9-dihydro-8H-purin-8-one] | did not show any changes | 8 | 40 |  |  | 
≤ 10 | ≤ 10 | Cn1c(=O)n(C2CCCCC2)c2nc(Nc3ccc(N4CCNCC4)cc3)ncc21 [14e] |  |  |  | moderate G1 block | inhibits autophosphorylation of FLT3 kinase at Y589/591 | diminishes the phosphorylation
≤ 10 | ≤ 10 | Cn1c(=O)n(C2CCCC2)c2nc(Nc3ccc(N4CCNCC4)cc3)ncc21 [14d] |  |  |  |  |  | 
